Source: BindingDB's records for doi:10.1021/jm950699x (Rhône-Poulenc Rorer, 1996)

Target: Leukotriene B4 receptor (Cavia porcellus)
Assay: Compound was evaluated for Leukotriene B4 receptor binding, obtained from radioligand binding assay using guinea pig spleen cell membrane

CCOC(=O)/C=C/c1cn(CC(=O)N(C)CCc2ccccc2)c2ccc(OCc3ccccc3)cc12 [(E)-3-{5-Benzyloxy-1-[(methyl-phenethyl-carbamoyl)-methyl]-1H-indol-3-yl}-acrylic acid ethyl ester]
IC50: > 300 nM
